Results as given in the supplement of paper PMC10307832.

Tests used:
Assay in all cases: relative viability (nuclei count vs DMSO), 5 days (fraction); higher = more cells survive
Midostaurin + Pemetrexed = compound: CO[C@@H]1[C@H](N(C)C(=O)c2ccccc2)C[C@H]2O[C@]1(C)n1c3ccccc3c3c4c(c5c6ccccc6n2c5c31)C(=O)NC4 [Midostaurin] + Nc1nc2[nH]cc(CCc3ccc(C(=O)N[C@@H](CCC(=O)O)C(=O)O)cc3)c2c(=O)[nH]1 [Pemetrexed] (partner 0.2 µM)
In short: (§1)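 Lung cancer cell lines in 1536-well plates were dosed by pin tool the day after seeding, either with one drug alone or with a fixed anchor-drug dose plus five library-drug doses (not always all listed) in √10 steps. After 5 days, cells were fixed and their nuclei stained in one step (final 0.05% Triton X-100, 1% formaldehyde, 1 ug/ml Hoechst), then counted on 4× images. Relative viability is the nuclei count in treated wells divided by that in vehicle wells. Values are medians of duplicate plates.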

[1] = compound: COc1cc(-c2nn([C@H]3CC[C@H](N4CCN(C(C)=O)CC4)CC3)c3ncnc(N)c23)ccc1NC(=O)c1cc2ccccc2n1C + CC(=O)Nc1cccc(-n2c(=O)n(C3CC3)c(=O)c3c(Nc4ccc(I)cc4F)n(C)c(=O)c(C)c32)c1 [Trametinib] (partner 0.02 µM)
In short: as §1

Midostaurin + Decitabine = compound: CO[C@@H]1[C@H](N(C)C(=O)c2ccccc2)C[C@H]2O[C@]1(C)n1c3ccccc3c3c4c(c5c6ccccc6n2c5c31)C(=O)NC4 [Midostaurin] + Nc1ncn([C@H]2C[C@H](O)[C@@H](CO)O2)c(=O)n1 [Decitabine] (partner 2 µM)
In short: as §1

Midostaurin + Tozasertib = compound: CO[C@@H]1[C@H](N(C)C(=O)c2ccccc2)C[C@H]2O[C@]1(C)n1c3ccccc3c3c4c(c5c6ccccc6n2c5c31)C(=O)NC4 [Midostaurin] + Cc1cc(Nc2cc(N3CCN(C)CC3)nc(Sc3ccc(NC(=O)C4CC4)cc3)n2)n[nH]1 [Tozasertib] (partner 0.1 µM)
In short: as §1

[2] = compound: COc1cc(-c2nn([C@H]3CC[C@H](N4CCN(C(C)=O)CC4)CC3)c3ncnc(N)c23)ccc1NC(=O)c1cc2ccccc2n1C + NC(=O)Nc1cc(-c2cccc(F)c2)sc1C(=O)N[C@H]1CCCNC1 [AZD7762] (partner 0.2 µM)
In short: as §1

Cell Line	relative viability (Midostaurin + Pemetrexed; first compound 0.01 µM)	relative viability (Midostaurin + Pemetrexed; first compound 0.03162 µM)	relative viability (Midostaurin + Pemetrexed; first compound 0.1 µM)	relative viability (Midostaurin + Pemetrexed; first compound 0.3162 µM)	relative viability ([1]; first compound 0.0128 µM)	relative viability ([1]; first compound 0.04048 µM)	relative viability ([1]; first compound 0.128 µM)	relative viability ([1]; first compound 1.28 µM)	relative viability (Midostaurin + Decitabine; first compound 0.01 µM)	relative viability (Midostaurin + Decitabine; first compound 0.03162 µM)	relative viability (Midostaurin + Decitabine; first compound 0.1 µM)	relative viability (Midostaurin + Decitabine; first compound 0.3162 µM)	relative viability (Midostaurin + Tozasertib; first compound 0.01 µM)	relative viability (Midostaurin + Tozasertib; first compound 0.03162 µM)	relative viability (Midostaurin + Tozasertib; first compound 0.1 µM)	relative viability (Midostaurin + Tozasertib; first compound 0.3162 µM)	relative viability ([2]; first compound 0.0128 µM)	relative viability ([2]; first compound 0.04048 µM)	relative viability ([2]; first compound 0.128 µM)	relative viability ([2]; first compound 1.28 µM)
HCC-366	0.156	0.15	0.153	0.156	0.309	0.281	0.305	0.179	0.383	0.364	0.325	0.298	0.146	0.126	0.0694	0.0567	0.252	0.221	0.246	0.193
HCC-827	0.249	0.251	0.241	0.255	0.574	0.341	0.525	0.286	0.303	0.318	0.356	0.349	0.407	0.352	0.4	0.416	0.211	0.212	0.199	0.138
HOP-62	0.332	0.278	0.326	0.41	0.428	0.173	0.376	0.296	0.203	0.25	0.246	0.227	0.363	0.431	0.303	0.321	0.74	0.555	0.661	0.566
LC-2-ad	0.295	0.281	0.25	0.258	0.956	0.536	0.895	0.895	0.672	0.751	0.699	0.763	0.509	0.545	0.52	0.422	0.86	0.846	0.789	0.646
LCLC-97TM1	0.164	0.137	0.193	0.166	0.22	0.125	0.139	0.133	0.215	0.239	0.25	0.242	0.21	0.218	0.247	0.257	0.377	0.165	0.283	0.194
LCLC-103H	0.464	0.53	0.452	0.467	0.717	0.58	0.583	0.664	0.712	0.742	0.752	0.757	0.522	0.45	0.456	0.379	0.828	0.787	0.759	0.703
NCI-H520	0.662	0.723	0.736	0.407	0.606	0.354	0.55	0.361	0.498	0.501	0.514	0.427	0.434	0.411	0.457	0.407				
NCI-H661	0.915	0.82	0.902	0.904	0.474	0.469	0.557	0.506	0.622	0.611	0.598	0.596	0.362	0.323	0.364	0.376				
NCI-H727					0.415		0.37	0.341	0.88	0.911	0.925	0.932	0.704	0.704	0.575	0.468	0.562		0.716	0.575
NCI-H1563	0.681	0.748	0.749	0.809																
NCI-H1623													0.445	0.481	0.433	0.446				
NCI-H1650	0.315	0.415	0.322	0.3	0.489	0.448	0.586	0.452	0.352	0.418	0.426	0.517	0.391	0.359	0.357	0.342				
NCI-H1703																	0.138	0.114	0.129	0.117
NCI-H1792	0.761	0.835	0.756	0.424	0.433	0.132	0.401	0.348	0.555	0.515	0.529	0.431					0.646	0.679	0.632	0.517
NCI-H2009	0.956	0.878	0.921	1.06	0.251	0.252	0.236	0.195	0.426	0.353	0.351	0.361	0.711	0.707	0.563	0.426				
NCI-H2023	0.194	0.244	0.227	0.19	0.402	0.445	0.585	0.454	0.226	0.273	0.223	0.201	0.408	0.316	0.29	0.171				
NCI-H2228	0.35	0.343	0.313	0.334	0.448	0.146	0.539	0.377					0.254	0.284	0.265	0.216				
SK-LU-1	0.99	0.92	0.836	0.794	0.455	0.316	0.432	0.336	0.704	0.724	0.595	0.597	0.337	0.449	0.278	0.202				
SK-MES-1	0.856	0.826	0.885	0.854	0.563	0.4	0.539	0.279	0.42	0.41	0.333	0.381	0.803	0.819	0.741	0.578				
SW 1573	0.843	0.957	0.849	0.752	0.52	0.556	0.492	0.477	0.52	0.741	0.524	0.476	0.177	0.187	0.173	0.157				
